Tested on: IgE antibodies from patients
Experiment: Wheat epitope mapping (2): overlapping 10-amino-acid peptide fragments shifted by one amino acid;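 note: key = sequence deemed particularly important within the common 15-residue sequence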
Type: binding, human
Settings: sequence without X
Outline: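 Cellulose-bound 10-mer peptides offset by one residue were probed with patient serum IgE and detected by chemiluminescence. Secondary-antibody-only signals were subtracted per peptide. Residual binding was expressed as % of the parent overlapping peptide, scored as none (<30%), poor (30–<50%), somewhat poor (50–<70%) or retained (≥70%).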

[1] = serum of patient G6 (adult, general immediate type allergy to wheat)
[2] = serum of patient G7 (adult, general immediate type allergy to wheat)
[3] = serum of patient G9 (adult, general immediate type allergy to wheat)

1474 (LQPQQPIS; REGION 1..8: note = epitope) [compound 1474]
Rank of partial sequence as epitope binding to IgE antibody (serum of patient P27 (WDEIA)): Preferably

1477 (YLQPQQPISQ; REGION 1..10: note = epitope) [compound 1477]
Rank of partial sequence as epitope binding to IgE antibody (serum of patient P32 (WDEIA)): Preferably

1478 (YLQPQQPIS; REGION 1..9: note = epitope) [compound 1478]
Rank of partial sequence as epitope binding to IgE antibody (serum of patient P32 (WDEIA)): Key

1479 (YLQPQQPISQ; REGION 1..10: note = epitope) [compound 1479]
Rank of partial sequence as epitope binding to IgE antibody (serum of patient P33 (WDEIA)): Preferably

1480 (YLQPQQPIS; REGION 1..9: note = epitope) [compound 1480]
Rank of partial sequence as epitope binding to IgE antibody (serum of patient P33 (WDEIA)): Key

1482 (YLQPQQPISQ; REGION 1..10: note = epitope) [compound 1482]
Rank of partial sequence as epitope binding to IgE antibody (serum of patient P34 (WDEIA)): More preferably

1483 (YLQPQQPIS; REGION 1..9: note = epitope) [compound 1483]
Rank of partial sequence as epitope binding to IgE antibody (serum of patient P34 (WDEIA)): Preferably

1484 (YLQPQQP; REGION 1..7: note = epitope) [compound 1484]
Rank of partial sequence as epitope binding to IgE antibody (serum of patient P34 (WDEIA)): Key

1485 (SQQQA; REGION 1..5: note = epitope) [compound 1485]
Rank of partial sequence as epitope binding to IgE antibody (serum of patient P34 (WDEIA)): Key

1487 (YLQPQQPISQ; REGION 1..10: note = epitope) [compound 1487]
Rank of partial sequence as epitope binding to IgE antibody (serum of patient P35 (WDEIA)): Preferably

1488 (YLQPQQPIS; REGION 1..9: note = epitope) [compound 1488]
Rank of partial sequence as epitope binding to IgE antibody (serum of patient P35 (WDEIA)): Key

1489 (QQPISQQQAQ; REGION 1..10: note = epitope) [compound 1489]
Rank of partial sequence as epitope binding to IgE antibody (serum of patient P35 (WDEIA)): Preferably

1492 (YLQPQQPISQ; REGION 1..10: note = epitope) [compound 1492]
Rank of partial sequence as epitope binding to IgE antibody (serum of patient P36 (WDEIA)): Preferably

1493 (YLQPQQPIS; REGION 1..9: note = epitope) [compound 1493]
Rank of partial sequence as epitope binding to IgE antibody (serum of patient P36 (WDEIA)): Key

1494 (YLQPQQPISQ; REGION 1..10: note = epitope) [compound 1494]
Rank of partial sequence as epitope binding to IgE antibody [1]: Preferably

1495 (YLQPQQPI; REGION 1..8: note = epitope) [compound 1495]
Rank of partial sequence as epitope binding to IgE antibody [1]: Key

1499 (YLQPQQPISQ; REGION 1..10: note = epitope) [compound 1499]
Rank of partial sequence as epitope binding to IgE antibody [2]: More preferably

1500 (YLQPQQPIS; REGION 1..9: note = epitope) [compound 1500]
Rank of partial sequence as epitope binding to IgE antibody [2]: Preferably

1502 (LQPQQP; REGION 1..6: note = epitope) [compound 1502]
Rank of partial sequence as epitope binding to IgE antibody [2]: Key

1503 (QPISQQQA; REGION 1..8: note = epitope) [compound 1503]
Rank of partial sequence as epitope binding to IgE antibody [2]: Preferably

1505 (SQQQA; REGION 1..5: note = epitope) [compound 1505]
Rank of partial sequence as epitope binding to IgE antibody [2]: Key

1506 (YLQPQQP; REGION 1..7: note = epitope) [compound 1506]
Rank of partial sequence as epitope binding to IgE antibody [3]: Preferably

1507 (YLQPQ; REGION 1..5: note = epitope) [compound 1507]
Rank of partial sequence as epitope binding to IgE antibody [3]: Key

1509 (QVPLVQQ; REGION 1..7: note = epitope) [compound 1509]
Rank of partial sequence as epitope binding to IgE antibody (serum of patient P3 (WDEIA)): Preferably

1514 (QVPLVQQQQ; REGION 1..9: note = epitope) [compound 1514]
Rank of partial sequence as epitope binding to IgE antibody (serum of patient P4 (WDEIA)): Preferably

1518 (QVPLVQQ; REGION 1..7: note = epitope) [compound 1518]
Rank of partial sequence as epitope binding to IgE antibody (serum of patient P7 (WDEIA)): Preferably

1520 (QVPLVQQ; REGION 1..7: note = epitope) [compound 1520]
Rank of partial sequence as epitope binding to IgE antibody (serum of patient P8 (WDEIA)): Preferably

1523 (QVPLVQQQQF; REGION 1..10: note = epitope) [compound 1523]
Rank of partial sequence as epitope binding to IgE antibody (serum of patient P10 (WDEIA)): Further preferably

1524 (QVPLVQQQQ; REGION 1..9: note = epitope) [compound 1524]
Rank of partial sequence as epitope binding to IgE antibody (serum of patient P10 (WDEIA)): More preferably

1525 (LVQQQQFLG; REGION 1..9: note = epitope) [compound 1525]
Rank of partial sequence as epitope binding to IgE antibody (serum of patient P10 (WDEIA)): Preferably

1526 (VQQQ; REGION 1..4: note = epitope) [compound 1526]
Rank of partial sequence as epitope binding to IgE antibody (serum of patient P10 (WDEIA)): Key

1527 (QVPLVQQQQ; REGION 1..9: note = epitope) [compound 1527]
Rank of partial sequence as epitope binding to IgE antibody (serum of patient P12 (WDEIA)): More preferably

1528 (QVPLVQQ; REGION 1..7: note = epitope) [compound 1528]
Rank of partial sequence as epitope binding to IgE antibody (serum of patient P12 (WDEIA)): Preferably

1532 (QVPLVQQQ; REGION 1..8: note = epitope) [compound 1532]
Rank of partial sequence as epitope binding to IgE antibody (serum of patient P14 (WDEIA)): Preferably

1534 (QQQQFLG; REGION 1..7: note = epitope) [compound 1534]
Rank of partial sequence as epitope binding to IgE antibody (serum of patient P14 (WDEIA)): Preferably

1538 (LVQQQQFLGQ; REGION 1..10: note = epitope) [compound 1538]
Rank of partial sequence as epitope binding to IgE antibody (serum of patient P17 (WDEIA)): Further preferably

1539 (LVQQQQFLG; REGION 1..9: note = epitope) [compound 1539]
Rank of partial sequence as epitope binding to IgE antibody (serum of patient P17 (WDEIA)): More preferably

1540 (VQQQQFLG; REGION 1..8: note = epitope) [compound 1540]
Rank of partial sequence as epitope binding to IgE antibody (serum of patient P17 (WDEIA)): Preferably

1542 (QVPLVQQQQ; REGION 1..9: note = epitope) [compound 1542]
Rank of partial sequence as epitope binding to IgE antibody (serum of patient P21 (WDEIA)): More preferably

1543 (QVPLVQQ; REGION 1..7: note = epitope) [compound 1543]
Rank of partial sequence as epitope binding to IgE antibody (serum of patient P21 (WDEIA)): Preferably

1547 (QVPLVQQQQ; REGION 1..9: note = epitope) [compound 1547]
Rank of partial sequence as epitope binding to IgE antibody (serum of patient P34 (WDEIA)): More preferably

1548 (QVPLVQQQ; REGION 1..8: note = epitope) [compound 1548]
Rank of partial sequence as epitope binding to IgE antibody (serum of patient P34 (WDEIA)): Preferably

1550 (LVQQQQFLGQ; REGION 1..10: note = epitope) [compound 1550]
Rank of partial sequence as epitope binding to IgE antibody (serum of patient P34 (WDEIA)): More preferably

1551 (QQQQFLGQ; REGION 1..8: note = epitope) [compound 1551]
Rank of partial sequence as epitope binding to IgE antibody (serum of patient P34 (WDEIA)): Preferably

1555 (QVPLVQQQ; REGION 1..8: note = epitope) [compound 1555]
Rank of partial sequence as epitope binding to IgE antibody (serum of patient P35 (WDEIA)): Preferably

1556 (LVQQQ; REGION 1..5: note = epitope) [compound 1556]
Rank of partial sequence as epitope binding to IgE antibody (serum of patient P35 (WDEIA)): Key

— patent US20240393292A1, “ALLERGY ANTIGEN AND EPITOPE THEREOF” (HOYU CO., LTD., priority 2019, published 2024)
